Test results: ChEMBL document CHEMBL1201862, “PubChem BioAssay data set” (2004)
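Grown in 96-well plates, cells were treated for 48 hours with each compound at five concentrations. Insufficient inhibition: endpoint recorded as highest concentration tested. GI50 marks 50% less growth.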 The source made the active and inactive calls. Cut-off read from the data, not from the text of the source: active = GI50 up to about 1.1 µM and inactive = higher.

Assays:
Experiment in all cases: DTP human tumour cell line panel, 48 h
[1] = tested on: COLO 205
[2] = tested on: NCI-H522
[3] = tested on: HOP-62
[4] = tested on: UACC-257
[5] = tested on: IGROV-1
[6] = tested on: SK-MEL-5
[7] = tested on: NCI-H226
[8] = tested on: SK-OV-3
[9] = tested on: HCT-15
[10] = tested on: A549
[11] = tested on: TK-10
[12] = tested on: HT-29
[13] = tested on: OVCAR-5
[14] = tested on: U-251
[15] = tested on: RPMI-8226
[16] = tested on: CAKI-1
[17] = tested on: UACC-62
[18] = tested on: SNB-19
[19] = tested on: RXF 393

Compound | GI50 [1] | GI50 [2] | GI50 [3] | GI50 [4] | GI50 [5] | GI50 [6] | GI50 [7] | GI50 [8] | GI50 [9] [µM] | GI50 [10] | GI50 [11] | GI50 [12] | GI50 [13] | GI50 [14] | GI50 [15] | GI50 [16] | GI50 [17] | GI50 [18] | GI50 [19]
O=C(O)CSc1nnc(COc2ccccc2)n1-c1ccccc1 | > 100 µM (inactive) | > 100 µM (inactive) | > 100 µM (inactive) | > 100 µM (inactive) | > 100 µM (inactive) | > 100 µM (inactive) | > 100 µM (inactive) | > 100 µM (inactive) | > 100 | > 100 µM (inactive) | > 100 µM (inactive) | > 100 µM (inactive) | > 100 µM (inactive) | > 100 µM (inactive) | > 100 µM (inactive) |  |  |  | 
Cc1ccc(NC(=O)CC2SC(=N)NC2=O)cc1C (stereo unspecified) | > 100 µM (inactive) | > 100 µM (inactive) | > 100 µM (inactive) | > 100 µM (inactive) | > 100 µM (inactive) |  | > 100 µM (inactive) | > 100 µM (inactive) | > 100 | > 100 µM (inactive) | > 100 µM (inactive) | > 100 µM (inactive) | > 100 µM (inactive) | 64.3 µM (inactive) | > 100 µM (inactive) | > 100 µM (inactive) | > 100 µM (inactive) | > 100 µM (inactive) | 
COc1ccc2[nH]c3c(c2c1)[C@H](c1ccccc1)C[C@@H]1C(=O)N(c2ccccc2)C(=O)[C@H]31 | > 100 µM (inactive) | 31.3 µM (inactive) | 22 µM (inactive) | > 100 µM (inactive) | 26.9 µM (inactive) | 72.9 µM (inactive) | 19.4 µM (inactive) | 23.3 µM (inactive) | 41.7 | 13.3 µM (inactive) | 33.7 µM (inactive) |  | > 100 µM (inactive) | 18 µM (inactive) |  | 25.6 µM (inactive) | > 100 µM (inactive) | 29.2 µM (inactive) | 16 µM (inactive)
COc1ccc(C2c3cc(OC)c(OC)cc3C(Cc3ccc([N+](=O)[O-])cc3)C2c2ccc([N+](=O)[O-])cc2)cc1OC (stereo unspecified) | > 100 µM (inactive) | 51.3 µM (inactive) | > 100 µM (inactive) | > 100 µM (inactive) | > 100 µM (inactive) | > 100 µM (inactive) | > 100 µM (inactive) |  | > 100 | > 100 µM (inactive) | > 100 µM (inactive) | > 100 µM (inactive) | > 100 µM (inactive) | > 100 µM (inactive) | > 100 µM (inactive) | > 100 µM (inactive) | > 100 µM (inactive) | > 100 µM (inactive) | 27.7 µM (inactive)
CN1Cc2c(nc(-c3ccc(Br)cc3)c[n+]2[O-])N(C)C1 | > 100 µM (inactive) | > 100 µM (inactive) | > 100 µM (inactive) | > 100 µM (inactive) | > 100 µM (inactive) | > 100 µM (inactive) | > 100 µM (inactive) | > 100 µM (inactive) |  | > 100 µM (inactive) |  | > 100 µM (inactive) | > 100 µM (inactive) | > 100 µM (inactive) |  | > 100 µM (inactive) |  | > 100 µM (inactive) | > 100 µM (inactive)
COC(CN1C(=O)c2cccc3cccc(c23)C1=O)OC | > 100 µM (inactive) |  | 43.7 µM (inactive) | 78.2 µM (inactive) | > 100 µM (inactive) | 70.1 µM (inactive) | 26.2 µM (inactive) | > 100 µM (inactive) | 53.6 | 56.9 µM (inactive) | 74.3 µM (inactive) | > 100 µM (inactive) | > 100 µM (inactive) | 42.4 µM (inactive) | 52.6 µM (inactive) |  | 73.1 µM (inactive) | > 100 µM (inactive) | > 100 µM (inactive)
COc1ccc2[nH]c3c(C)cc([N+](=O)[O-])c(C)c3c2c1 | 26.3 µM (inactive) | 17.1 µM (inactive) |  | 31.2 µM (inactive) | 27.4 µM (inactive) | 25.6 µM (inactive) | 43.7 µM (inactive) | 28.2 µM (inactive) | 26.6 | 25 µM (inactive) | 27.1 µM (inactive) | 28.5 µM (inactive) |  | 22.9 µM (inactive) | 17.7 µM (inactive) | 19.4 µM (inactive) |  | 37.8 µM (inactive) | 19 µM (inactive)
CC(=O)NC(C=O)C(O[C@H](C)C(=O)NC(C)C(=O)NC(CCC(N)=O)C(=O)OCc1ccccc1)C(O)C(O)COC(=O)CCNc1c2ccccc2nc2cccc([N+](=O)[O-])c12 (stereo partly specified) | 1.29 µM (inactive) | 1.62 µM (inactive) | 2.95 µM (inactive) | 7.46 µM (inactive) | > 100 µM (inactive) | > 100 µM (inactive) | 2.6 µM (inactive) |  | 11.4 | 2.23 µM (inactive) | 13.6 µM (inactive) | 2.14 µM (inactive) | 3.44 µM (inactive) | 2.56 µM (inactive) | 1.63 µM (inactive) | 1.45 µM (inactive) | 3.23 µM (inactive) | 4.49 µM (inactive) | 3.96 µM (inactive)
COC(=O)CC1C[C@H](C#N)N(C(=O)c2ccccc2)C[C@@H]1CC[N+](=O)[O-] (stereo partly specified) | > 100 µM (inactive) |  | > 100 µM (inactive) | > 100 µM (inactive) | > 100 µM (inactive) | > 100 µM (inactive) |  | > 100 µM (inactive) | > 100 | > 100 µM (inactive) | > 100 µM (inactive) | > 100 µM (inactive) | > 100 µM (inactive) | > 100 µM (inactive) | > 100 µM (inactive) |  | > 100 µM (inactive) | > 100 µM (inactive) | > 100 µM (inactive)
CC1CC[C@@]23CCC4(C)[C@@](C=CC5[C@@]6(C)CCC(=O)C(C)(C)C6CC[C@]54C)(OC2=O)[C@@H]3[C@H]1C (stereo partly specified) | 13.7 µM (inactive) | 11 µM (inactive) | 16.9 µM (inactive) | 6.59 µM (inactive) | 21.1 µM (inactive) | 4.84 µM (inactive) | 19.8 µM (inactive) | 27.9 µM (inactive) |  | 6.93 µM (inactive) | 22.4 µM (inactive) | 16.4 µM (inactive) |  | 17.3 µM (inactive) |  | 21.5 µM (inactive) | 12.2 µM (inactive) | 29.8 µM (inactive) | 14.1 µM (inactive)
COc1cccc(/C=C/c2cc(OC)c(OC)c(OC)c2)c1 | 34.4 µM (inactive) | > 100 µM (inactive) | 37 µM (inactive) | 38.3 µM (inactive) | 47.2 µM (inactive) | 24.8 µM (inactive) | 18.4 µM (inactive) | 38.2 µM (inactive) | 53 | 42.3 µM (inactive) |  | 34.4 µM (inactive) | > 100 µM (inactive) | 36.5 µM (inactive) | 34 µM (inactive) |  | 25.4 µM (inactive) | 42.9 µM (inactive) | 
COCC(O)Cn1ccnc1[N+](=O)[O-] (stereo unspecified) [MISONIDAZOLE] | > 100 µM (inactive) | > 100 µM (inactive) | > 100 µM (inactive) | > 100 µM (inactive) |  |  | > 100 µM (inactive) | > 100 µM (inactive) | > 100 | > 100 µM (inactive) | > 100 µM (inactive) | > 100 µM (inactive) | > 100 µM (inactive) | > 100 µM (inactive) | > 100 µM (inactive) | > 100 µM (inactive) |  | > 100 µM (inactive) | 
